Test [1] addresses T1, human recombinant ETB receptor (Homo sapiens, UniProt P24530).
T1 construct: expressed in transfected cells; host or cells: CHO cells (microsomal membranes)
T1 sequence (P24530 27-442): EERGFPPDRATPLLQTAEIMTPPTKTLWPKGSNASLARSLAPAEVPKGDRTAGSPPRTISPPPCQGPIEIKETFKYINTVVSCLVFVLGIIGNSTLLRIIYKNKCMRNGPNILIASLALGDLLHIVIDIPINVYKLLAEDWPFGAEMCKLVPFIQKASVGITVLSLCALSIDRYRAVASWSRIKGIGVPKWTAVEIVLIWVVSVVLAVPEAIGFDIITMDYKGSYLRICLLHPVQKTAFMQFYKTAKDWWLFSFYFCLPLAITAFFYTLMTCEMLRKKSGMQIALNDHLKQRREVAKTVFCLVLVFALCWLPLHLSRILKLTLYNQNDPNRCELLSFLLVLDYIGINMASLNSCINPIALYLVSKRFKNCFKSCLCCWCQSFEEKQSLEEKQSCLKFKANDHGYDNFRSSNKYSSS
In words: Inhibition of [125I]ET-1 binding to membranes from CHO cells carrying human ETB receptors.

In test [2] the target is T2, human recombinant ETA receptor (Homo sapiens, UniProt P25101).
T2 construct: expressed in transfected cells; host or cells: CHO cells (microsomal membranes)
T2 sequence (P25101 21-427): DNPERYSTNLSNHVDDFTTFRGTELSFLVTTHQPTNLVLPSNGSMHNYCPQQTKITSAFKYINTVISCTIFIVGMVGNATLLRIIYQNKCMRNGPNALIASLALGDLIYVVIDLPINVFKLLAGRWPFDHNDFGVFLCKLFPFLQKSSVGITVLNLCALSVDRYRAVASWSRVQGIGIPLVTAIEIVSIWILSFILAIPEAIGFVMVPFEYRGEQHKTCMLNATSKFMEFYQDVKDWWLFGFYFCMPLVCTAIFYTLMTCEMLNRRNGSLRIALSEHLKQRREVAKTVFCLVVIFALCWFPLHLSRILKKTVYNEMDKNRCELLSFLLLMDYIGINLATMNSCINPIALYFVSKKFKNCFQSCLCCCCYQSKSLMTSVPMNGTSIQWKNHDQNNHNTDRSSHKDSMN
In words: Inhibition of [125I]ET-1 binding to membranes from CHO cells carrying human ETA receptors.

A word on the IC50: it is the concentration that inhibits the measured activity by half. With `COc1ccccc1Oc1c(NS(=O)(=O)Nc2ccc(C(C)C)cc2)nc(-c2ccncc2)nc1OC` [Example 1, 4-i-propyl-phenyl sulfamic acid-[6-methoxy-5-(o-methoxyphenoxy)-2-(4-pyridyl)-pyrimidin-4-yl]-amide], the IC50 in test [1] stood at 8430 nM; in test [2] it was 721 nM. For `C=CCOc1nc(-c2ccncc2)nc(NS(=O)(=O)Nc2ccc(C(C)C)cc2)c1Oc1ccccc1OC` [Example 2, 4-i-propyl-phenyl sulfamic acid-[6-allyloxy-5-(o-methoxyphenoxy)-2-(4-pyridyl)-pyrimidin-4-yl]-amide], the results for the IC50 in test [1] and in test [2] were 8740 nM and 2190 nM, respectively. The corresponding values for `COc1ccccc1Oc1c(NS(=O)(=O)Nc2ccc(C(C)C)cc2)nc(-c2ccncc2)nc1OCCO` [Example 3, 4-i-propyl-phenyl sulfamic acid-[6-(2-hydroxy-ethoxy)-5-(o-methoxyphenoxy)-2-(4-pyridyl)-pyrimidin-4-yl]-amide] are 744 nM and 1380 nM. In the same order, the values of `COc1ccccc1Oc1c(NS(=O)(=O)Nc2ccc(C(C)C)cc2)nc(-c2ccncc2)nc1OCCOc1ncccn1` [Example 4, 4-i-propyl-phenyl sulfamic acid-[6-[2-(pyrimidin-2-yloxy)-ethoxy]-5-(o-methoxyphenoxy)-2-(4-pyridyl)-pyrimidin-4-yl]-amide] are 680 nM and 96 nM. Consider `COc1ccccc1Oc1c(NS(=O)(=O)Nc2ccc(C(C)C)cc2)nc(-c2ccncc2)nc1OCCOc1ccc(C(F)(F)F)cn1` [Example 6, 4-i-propyl-phenyl sulfamic acid-[6-[2-(5-trifluoromethyl-pyridin-2-yloxy)-ethoxy]-5-(o-methoxy-phenoxy)-2-(4-pyridyl)-pyrimidin-4-yl]-amide], for which the IC50 in test [1] amounted to 7240 nM; in test [2], 286 nM.

As to `CCNS(=O)(=O)Nc1nc(-c2ccncc2)nc(OC)c1Oc1ccccc1OC` [Example 7, ethyl sulfamic acid-[6-methoxy-5-(o-methoxy-phenoxy)-2-(4-pyridyl)-pyrimidin-4-yl]-amide], the figures for the half-inhibitory concentration (IC50) in test [1] and in test [2] were 9470 nM and 1240 nM, respectively. For the compound `COc1ccccc1Oc1c(NS(=O)(=O)Nc2ccc(C)cn2)nc(-c2ccncc2)nc1OC` [Example 8, 5-methyl-pyridine-2-sulfamic acid-[6-methoxy-5-(o-methoxy-phenoxy)-2-(4-pyridyl)-4-pyrimidinyl]-amide], the IC50 in test [1] was above 10000 nM; in test [2], 1160 nM.

For `COc1ccccc1Oc1c(NS(=O)(=O)Nc2ccccn2)nc(-c2ccncc2)nc1OC` [Example 9, pyridine-2-sulfamic acid-[6-methoxy-5-(o-methoxyphenoxy)-2-(4-pyridyl)-4-pyrimidinyl]-amide], the IC50 was above 10000 nM in test [1] and 3630 nM in test [2]. For `COc1ccccc1Oc1c(NS(=O)(=O)Nc2ccc(C(C)(C)C)cc2)nc(-c2ccncc2)nc1OCCO` [Example 10, 4-t-butyl-phenyl sulfamic acid-[6-(2-hydroxy-ethoxy)-5-(o-methoxy-phenoxy)-2-(4-pyridyl)-4-pyrimidinyl]-amide], the concentration for half-maximal inhibition (IC50) in test [1] came out at 193 nM; in test [2] it was 2870 nM. The corresponding values for `Cc1ccc(NS(=O)(=O)Nc2ncnc(OCCOc3ncc(Br)cn3)c2-c2ccc(C)cc2)cc1` [Example 12, 4-methyl-phenyl sulfamic acid-[6-[2-(5-bromo-pyrimidin-2-yloxy)-ethoxy]-5-(p-tolyl)-4-pyrimidinyl]-amide] are above 10000 nM and 59 nM. In the same order, the values of `COc1cnc(OCCOc2ncnc(NS(=O)(=O)NCc3ccccc3)c2-c2ccc(Cl)cc2)nc1` [Example 15] are 2160 nM and 18.5 nM.

As for `Cc1cnc(OCCOc2ncnc(NS(=O)(=O)NCc3ccccc3)c2-c2ccc(Cl)cc2)nc1` [Example 16], the half-maximal inhibitory concentration (IC50) came out at 8450 nM in test [1] and 45 nM in test [2]. The corresponding values for `COc1cnc(OCCOc2ncnc(NS(=O)(=O)NCc3cccs3)c2-c2ccc(Cl)cc2)nc1` [Example 21] are 1000 nM and 7 nM. For the compound `O=S(=O)(NCc1cccs1)Nc1ncnc(OCCOc2ccc(C(F)(F)F)cn2)c1-c1ccc(Cl)cc1` [Example 22], the IC50 in test [1] is 434 nM; in test [2], 12 nM. In the same order, the values of `COc1cnc(OCCOc2ncnc(NS(=O)(=O)NCc3ccco3)c2-c2ccc(Cl)cc2)nc1` [Example 23] are 1590 nM and 3.6 nM.

Take `O=S(=O)(NCc1ccco1)Nc1ncnc(OCCOc2ncc(Br)cn2)c1-c1ccc(Cl)cc1` [Example 24]: the IC50 is 2500 nM in test [1] and 2.2 nM in test [2]. Take `O=S(=O)(NCc1ccccc1)Nc1nc(-c2ncccn2)nc(OCCOc2ncc(Br)cn2)c1-c1ccccc1` [Example 26]: the 50% inhibitory concentration (IC50) is above 10000 nM in test [1] and 54 nM in test [2]. For `CCc1ccc(-c2c(NS(=O)(=O)NCc3ccccc3)ncnc2OCCOc2ncc(Br)cn2)cc1` [Example 29], the 50% inhibitory concentration (IC50) in test [2] turned out to be 13.5 nM. In the case of `CSc1cnc(OCCOc2nc(-c3ccncc3)nc(NS(=O)(=O)NCc3ccccc3)c2-c2ccc(C)cc2)nc1` [Example 33], the concentration for half-maximal inhibition (IC50) is 609 nM in test [1] and 3.7 nM in test [2]. The corresponding values for `Cc1ccc(-c2c(NS(=O)(=O)NCc3ccccc3)nc(-c3ccncc3)nc2OCCOC(=O)Nc2ccccn2)cc1` [Example 34] are 3270 nM and 23 nM. On to `COc1ccccc1Oc1c(NS(=O)(=O)NCc2ccccc2)nc(-c2ncccn2)nc1OCCOc1ncccn1` [Example 39], for which the concentration for half-maximal inhibition (IC50) in test [1] came to 524 nM; in test [2], 32.7 nM. Consider `COc1ccccc1Oc1c(NS(=O)(=O)NCc2ccccc2)nc(-c2ncccn2)nc1OCCOC(=O)Nc1cnccn1` [Example 42], for which the IC50 was 146 nM in test [1] and 3.5 nM in test [2].

`COc1ccccc1Oc1c(NS(=O)(=O)NCc2ccccc2)nc(-c2ncccn2)nc1OCCOC(=O)Nc1ccccc1` [Example 43]: the IC50 was 214 nM in test [1] and 6.8 nM in test [2].

For the compound `COc1ccc(CNS(=O)(=O)Nc2nc(-c3ncccn3)nc(OCCOc3ncc(Br)cn3)c2Oc2ccccc2OC)cc1` [Example 48], the IC50 in test [1] came to 46.6 nM; in test [2] it was 1.46 nM. Turning to `COc1ccc(CNS(=O)(=O)Nc2nc(-c3ncccn3)nc(OCCOc3ncc(OC)cn3)c2Oc2ccccc2OC)cc1` [Example 49], the IC50 in test [1] is 25.4 nM; in test [2] it was 0.82 nM. The corresponding values for `COc1ccc(CNS(=O)(=O)Nc2nc(-c3ncccn3)nc(OCCOC(=O)Nc3ccccn3)c2Oc2ccccc2OC)cc1` [Example 50] are 7.5 nM and 0.87 nM. Take `COc1cnc(OCCOc2nc(-c3ncccn3)nc(NS(=O)(=O)NCc3ccc(Cl)cc3)c2Oc2ccccc2OC)nc1` [Example 55]: the IC50 in test [1] turned out to be 80 nM; in test [2], 5.2 nM. For the compound `COc1ccccc1Oc1c(NS(=O)(=O)NCc2ccc(Cl)cc2)nc(-c2ncccn2)nc1OCCOc1ncc(Br)cn1` [Example 56], the IC50 in test [1] is 164 nM; in test [2] it was 6.9 nM. In the case of `COc1ccccc1Oc1c(NS(=O)(=O)NCc2ccccc2)nc(-c2cnccn2)nc1OCCOc1ncc(Br)cn1` [Example 71], the IC50 in test [2] is 23.6 nM.

For `COc1ccccc1Oc1c(NS(=O)(=O)NCc2ccccc2)nc(-c2ccncc2)nc1OCCOc1ncc(Br)cn1` [Example 73], the IC50 in test [2] amounted to 1.9 nM.

Regarding `COc1ccccc1Oc1c(NS(=O)(=O)NCc2ccccc2)nc(C2CC2)nc1OCCOc1ncc(Br)cn1` [Example 88], in test [2], the IC50 is 16 nM. Take `COc1ccccc1Oc1c(NS(=O)(=O)NCc2ccccc2)ncnc1OCCOc1ncc(Br)cn1` [Example 96]: the 50% inhibitory concentration (IC50) in test [2] worked out at 6.3 nM. Still for that read-out and setting: as for `CCNS(=O)(=O)Nc1ncnc(OCCOc2ncc(Br)cn2)c1-c1ccc(Br)cc1` [Example 104], the figure is 0.88 nM; as for `CCNS(=O)(=O)Nc1nc(-c2ncccn2)nc(OCCOc2ncc(Br)cn2)c1Oc1ccccc1OC` [Example 184], 29.5 nM. Still for that read-out and setting: as for `COc1ccccc1Oc1c(NS(=O)(=O)N(C)Cc2ccccc2)nc(-c2ncccn2)nc1OCCOc1ncc(Br)cn1` [Example 187], the figure is 9.8 nM. For `O=S(=O)(Nc1ncnc(OCCOc2ncc(Br)cn2)c1-c1ccc(Br)cc1)NC1CC1` [Example 196], in test [2], the IC50 is 4.4 nM. Turning to `COc1ccccc1Oc1c(NS(=O)(=O)NCc2ccccc2)nc(N2CCOCC2)nc1OCCOc1ncc(Br)cn1` [Example 206, Benzylsulfamic acid [6-[2-(5-bromo-pyrimidin-2-yloxy)-ethoxy]-5-(2-methoxy-phenoxy)-2-morpholin-4-yl-pyrimidin-4-yl]-amide], the IC50 in test [2] amounted to 1.03 nM.

For `COc1ccc(Cl)c(Oc2c(NS(=O)(=O)NCc3ccccc3)ncnc2OCCOc2ncc(Br)cn2)c1` [Example 212, Benzylsulfamic acid [6-[2-(5-bromo-pyrimidin-2-yloxy)-ethoxy]-5-(2-chloro-5-methoxy-phenoxy)-pyrimidin-4-yl]-amide], the IC50 in test [2] stood at 3.1 nM.

Source of the values: patent publication US7094781B2, “Sulfamides and their use as endothelin receptor antagonists” (Actelion Pharmaceuticals Ltd., priority 2000, dated 2006).
